# Test results taken from US20240000765A1, “COMBINATION TREATMENT OF LIVER DISORDERS” (Terns Pharmaceuticals, Inc., priority 2020, published 2024).
# Assays:
# THRα [1] = target: T1, THRα (Homo sapiens, UniProt P10827); assay: Binding activity to THRα; conditions: read-out: IC50 THRα binding force
# T1 sequence (P10827 1-410 isoform P10827-2): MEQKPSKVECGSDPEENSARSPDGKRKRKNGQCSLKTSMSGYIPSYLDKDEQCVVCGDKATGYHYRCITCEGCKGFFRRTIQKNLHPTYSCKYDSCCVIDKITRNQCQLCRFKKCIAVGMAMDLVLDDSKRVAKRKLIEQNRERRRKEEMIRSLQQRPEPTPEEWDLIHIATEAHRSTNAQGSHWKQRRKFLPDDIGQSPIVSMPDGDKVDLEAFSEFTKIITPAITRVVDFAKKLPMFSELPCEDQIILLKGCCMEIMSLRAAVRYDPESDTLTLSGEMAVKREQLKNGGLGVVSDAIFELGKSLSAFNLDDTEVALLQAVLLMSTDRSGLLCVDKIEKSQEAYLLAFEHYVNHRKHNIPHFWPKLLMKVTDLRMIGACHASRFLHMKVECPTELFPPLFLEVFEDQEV
# THRβ = target: T2, THRβ (Homo sapiens, UniProt P10828); assay: Binding activity to the thyroxine receptor beta; conditions: ratio of binding IC50
# T2 sequence (P10828 1-461): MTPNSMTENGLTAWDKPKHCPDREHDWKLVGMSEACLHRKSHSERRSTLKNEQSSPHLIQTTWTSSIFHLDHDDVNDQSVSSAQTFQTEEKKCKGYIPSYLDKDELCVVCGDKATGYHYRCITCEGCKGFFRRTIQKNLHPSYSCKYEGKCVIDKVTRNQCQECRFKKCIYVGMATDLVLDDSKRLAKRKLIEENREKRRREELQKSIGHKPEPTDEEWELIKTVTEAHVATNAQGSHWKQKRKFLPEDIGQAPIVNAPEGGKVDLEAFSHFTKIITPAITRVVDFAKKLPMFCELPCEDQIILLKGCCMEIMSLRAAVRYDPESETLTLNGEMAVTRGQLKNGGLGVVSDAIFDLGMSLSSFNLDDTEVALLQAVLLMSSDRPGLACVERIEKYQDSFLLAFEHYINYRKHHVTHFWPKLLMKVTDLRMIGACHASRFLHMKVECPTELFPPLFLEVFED
# THRα [2] = target: T1, THRα; assay: Agonistic activity toward THRα; assay type: biochemical
# mouse NASH model = assay: Mouse NASH model (high fat diet + CCl4), Compound 2; assay type: in vivo, C57BL/6J mice
# Method: C57BL/6J mice were fed a high fat diet for 10 weeks to induce obesity (>38 g BW). Obese mice were injected intraperitoneally (i.p.) twice a week for four weeks with 0.5 μl/g 25% CCl4 (formulated in olive oil) to induce fibrosis, and one group of normal BW mice were injected i.p. twice a week for four weeks with olive oil to serve as a healthy control. During the same dosing period, obese mice were fed orally once a day for 28 days with vehicle or varying doses of Compound 2. On CCl4 dosing days, CCl4 was administered at 4 hours post compound or vehicle dosing. On day 27, all animals were fasted for about 16 hours before terminal euthanasia. On day 28, all animals were sacrificed and various biological parameters were analyzed. Total body, liver, heart and brain weight were measured and changes in liver and heart weight were normalized using brain weight. […] Liver tissue histology was analyzed for effects of Compound 2 on steatosis, inflammation and fibrosis. […] Liver samples were collected for whole transcriptome analysis by RNA sequencing (RNAseq). RNAseq library (n=5 per group) preparation and sequencing was performed using Illumina standard protocols. Alignment of sequencing reads was performed using STAR aligner software and read counts were estimated using RSEM. Differentially expressed genes (compared to vehicle-treated NASH control mice) were determined using EdgeR software. Gene ontology analysis was performed using Advaita software with fold-change and adjusted p-value cutoffs of >1.5 and <0.05, respectively. Gene ontologies were derived from the Gene Ontology Consortium database (2019 Apr. 26) (Ashbumer et al., Gene ontology: Tool for the unification of biology. Nature Genetics 25(1): 25-9 (2000); Gene Ontology Consortium, Creating the Gene Ontology Resource: Design and Implementation. Genome Research 11: 1425-1433 (2001)).
# [3] = Pharmacokinetic evaluation in rats, intragastric infusion; assay type: in vivo; conditions: SD rats, intragastric 2 mg/kg
# Method: Drug Preparation: a certain amount of the drug was taken and added into a 2% Klucel LF+0.1% Tween 80 aqueous solution, to prepare a clear solution or a uniform suspension.
# Dosage: SD rats were fasted overnight and given the drug by intragastric infusion at an administrated dose of 2 mg/kg and an administrated volume of 10 mL/kg each.
# Operation: rats were dosed by intragastric infusion with the compounds. […] The heparinized sample tubes were then stored at −20° C., and the rats were allowed to eat food 2 h after the dosage.
# Determination of contents of the compounds to be tested in the plasma of rats after intragastric infusion of the drugs at different concentrations: the plasma samples were thawed at room temperature, 50 μL each was taken and added into 130 μL of an internal standard working solution (1000 ng/mL, acetonitrile, tolbutamide), and the mixture was whirled for about 1 min and then centrifugated at 4° C. and 13000 rpm for 10 min. 50 μL of the supernatant was taken and mixed with 100 μL of 50% acetonitrile water, and then introduced for LC/MS/MS analysis.
structure (smiles),measurement,setting,value
N#Cc1nn(-c2cc(Cl)c(Oc3n[nH]c(=O)c4ccccc34)c(Cl)c2)c(=O)[nH]c1=O [Compound 2],IC50,THRα [1],> 10 µM
same,THRα/β selectivity (factor),THRβ,>58.8
same,EC50,THRα [2],3.98 µM
same,liver fibrosis (histology),mouse NASH model; 3 and 10 mpk,significantly reduced
same,liver steatosis (histology),mouse NASH model; all doses tested,significantly reduced
same,serum ALT,mouse NASH model; all doses tested,significantly reduced
same,serum total cholesterol,mouse NASH model; all doses tested,significantly reduced
same,serum triglycerides,mouse NASH model; all doses tested,significantly reduced
same,expression of genes associated with collagen extracellular matrix and hepatic stellate cell activation relative to NASH control,mouse NASH model; liver RNAseq,reducing their expression levels
same,heart/brain weight,"mouse NASH model; oral once a day, 28 days",no effect
same,liver inflammation (histology),"mouse NASH model; oral once a day, 28 days",trend in inflammation reduction
same,liver/brain weight,"mouse NASH model; oral once a day, 28 days",significantly reduced
same,total body weight,"mouse NASH model; oral once a day, 28 days",no effect
same,Curve area,[3],24790 ± 3704 ng·h/mL
same,Peak blood drug concentration,[3],2007 ± 106 ng/mL
same,Time to peak,[3],4.67 ± 1.15 h
